Experimental data taken from patent US20150004202A1, “ANTIBACTERIAL AGENT AGAINST PLANT DISEASE-CAUSING BACTERIA” (priority 2012, published 2015).
Converted amounts (≈) assume the structure as drawn. Read-outs that look alike come from different tables or passages of the source.

Legend:
[1] = system: Ralstonia solanacearum (field isolates KNOB38, KNOB39), eggplant wilt-causing bacteria; test: microbe, parasite or virus in culture; assay type: cell-based
[2] = system: field isolates listed in Table 6 (KNOB30 to KNOB110), bacteria pathogenic to crops; test: MIC of various amino acid-containing particles, HI medium; assay type: cell-based; conditions: 24 hours after addition
Description: (1) Freeze-stored 4 strains were seeded on heart infusion medium and PSA medium. (2) Seeded bacteria were cultured at 25° C. for 48 hours. (3) The antibacterial activity was assessed by measurement of the minimum inhibitory concentration (MIC) in accordance with a broth microdilution method. HI medium prepared without agar was used as a liquid medium. […] The above-described antibacterial agents were added to the liquid media at various concentrations, respectively, and the cultured bacteria described in (2) were inoculated thereto, followed by judgement of the results 24 hours and 48 hours after inoculation. The tests were repeated three times (n=3).
The antibacterial activity of nanoparticles containing Gly, Arg, Asp, or Ala produced above was examined. As test bacteria, field isolates listed in Table 6, tomato canker-causing bacteria standard strains (JCM1370, JCM1373), and kidney bean wilt-causing bacterium Curtobacterium flaccumfaciens pv. flaccumfaciens standard strain (JCM1347) were used.

[3] = system: tomato canker-causing bacteria standard strains (JCM1370, JCM1373); assay type: cell-based, Clavibacter michiganensis subsp. michiganensis; conditions: 24 hours after addition
[4] = system: Curtobacterium flaccumfaciens pv. flaccumfaciens standard strain (JCM1347), kidney bean wilt-causing bacterium; test: MIC of various amino acid-containing particles, HI medium; assay type: cell-based; conditions: 24 hours after addition
[5] = system: Clavibacter michiganensis subsp. michiganensis (field isolates KNOB16, KNOB23), tomato canker-causing bacteria; test: MIC by broth microdilution (investigation of measurement conditions); assay type: cell-based
[6] = 24 h, KNOB30, HI medium, read-out: MIC
[7] = 24 h, KNOB33, HI medium, read-out: MIC
[8] = 24 h, KNOB67, HI medium, read-out: MIC
[9] = 24 h, KNOB75, HI medium, read-out: MIC
[10] = 24 h, KNOB105, HI medium, read-out: MIC
[11] = 24 h, KNOB106, HI medium, read-out: MIC
[12] = 24 h, KNOB108, HI medium, read-out: MIC
[13] = 24 h, KNOB110, HI medium, read-out: MIC
[14] = Curtobacterium flaccumfaciens, read-out: MIC
[15] = Clavibacter michiganensis, 24 h, KNOB16, HI medium, 24 H later
[16] = Clavibacter michiganensis, 24 h, KNOB16, PSA medium, 24 H later
[17] = Clavibacter michiganensis, 24 h, KNOB23, HI medium, 24 H later
[18] = Clavibacter michiganensis, 24 h, KNOB23, PSA medium, 24 H later
[19] = Clavibacter michiganensis, 48 h, KNOB16, HI medium, 48 H later
[20] = Clavibacter michiganensis, 48 h, KNOB16, PSA medium, 48 H later
[21] = Clavibacter michiganensis, 48 h, KNOB23, HI medium, 48 H later
[22] = Clavibacter michiganensis, 48 h, KNOB23, PSA medium, 48 H later

Q: With `CC1(C)S[C@@H]2[C@H](NC(=O)[C@H](N)c3ccccc3)C(=O)N2[C@H]1C(=O)O` [ABPC, ampicillin] as the molecule, how does the MIC ([1]; KNOB39, HI medium, 24 H later) read?
A: 0.5 µg/mL (≈ 1.43 µM)

Q: What about the MIC ([1]; KNOB39, HI medium, 48 H later) of the same molecule?
A: 0.5 µg/mL (≈ 1.43 µM)

Q: And the MIC ([1]; Ralstonia solanacearum, 24 h)?
A: 0.5 µg/mL (≈ 1.43 µM)

Q: And the MIC ([1]; Ralstonia solanacearum, 48 h)?
A: 0.5 µg/mL (≈ 1.43 µM)

Q: And the MIC [2, 6]?
A: 0.5 µg/mL

Q: And the MIC [2, 7]?
A: < 0.25 µg/mL

Q: And the MIC ([2]; 24 h, KNOB64, HI medium)?
A: < 0.25 µg/mL

Q: What about the MIC [2, 8] of the same molecule?
A: < 0.25 µg/mL

Q: What about the MIC [2, 9] of the same molecule?
A: 0.5 µg/mL

Q: What about the MIC [2, 10] of the same molecule?
A: < 0.25 µg/mL

Q: What about the MIC [2, 11] of the same molecule?
A: < 0.25 µg/mL

Q: What about the MIC [2, 12] of the same molecule?
A: 0.5 µg/mL

Q: And the MIC [2, 13]?
A: < 0.25 µg/mL

Q: What about the MIC ([3]; JCM1370, HI medium) of the same molecule?
A: 0.5 µg/mL (≈ 1.43 µM)

Q: What about the MIC ([3]; JCM1373, HI medium) of the same molecule?
A: 1 µg/mL (≈ 2.86 µM)

Q: What about the MIC [4, 14] of the same molecule?
A: 2 µg/mL

Q: What about the MIC [5, 15] of the same molecule?
A: 0.25 µg/mL (≈ 0.715 µM)

Q: What about the MIC [5, 16] of the same molecule?
A: 0.5 µg/mL (≈ 1.43 µM)

Q: What about the MIC [5, 17] of the same molecule?
A: 0.25 µg/mL (≈ 0.715 µM)

Q: And the MIC [5, 18]?
A: 0.5 µg/mL (≈ 1.43 µM)

Q: And the MIC [5, 19]?
A: 0.25 µg/mL (≈ 0.715 µM)

Q: And the MIC [5, 20]?
A: 1 µg/mL (≈ 2.86 µM)

Q: What about the MIC [5, 21] of the same molecule?
A: 0.25 µg/mL (≈ 0.715 µM)

Q: And the MIC [5, 22]?
A: 0.5 µg/mL (≈ 1.43 µM)

Q: With `CCO` [EtOH, ethanol] as the molecule, how does the MIC ([1]; KNOB38, HI medium, 24 H later) read?
A: 7.5 µg/mL (≈ 163 µM)

Q: And the MIC ([1]; KNOB38, HI medium, 48 H later)?
A: 15 µg/mL (≈ 326 µM)

Q: What about the MIC ([1]; KNOB39, HI medium, 24 H later) of the same molecule?
A: 7.5 µg/mL (≈ 163 µM)

Q: What about the MIC ([1]; KNOB39, HI medium, 48 H later) of the same molecule?
A: 7.5 µg/mL (≈ 163 µM)

Q: What about the “antibacterial activity against eggplant wilt-causing bacteria compared with KAS” value ([1]; comparison of MIC values of Table 5) of the same molecule?
A: stronger than KAS and nanoparticles

Q: What about the MIC ([2]; KNOB30, HI medium) of the same molecule?
A: 30 µg/mL

Q: And the MIC ([2]; KNOB33, HI medium)?
A: 30 µg/mL

Q: What about the MIC ([2]; KNOB64, HI medium) of the same molecule?
A: 30 µg/mL

Q: And the MIC ([2]; KNOB67, HI medium)?
A: 30 µg/mL

Q: What about the MIC ([2]; KNOB75, HI medium) of the same molecule?
A: 60 µg/mL

Q: And the MIC ([2]; KNOB105, HI medium)?
A: 15 µg/mL

Q: What about the MIC ([2]; KNOB106, HI medium) of the same molecule?
A: 7.5 µg/mL

Q: What about the MIC ([2]; KNOB108, HI medium) of the same molecule?
A: 15 µg/mL

Q: What about the MIC ([2]; KNOB110, HI medium) of the same molecule?
A: 15 µg/mL

Q: And the MIC ([3]; JCM1370, HI medium)?
A: 15 µg/mL (≈ 326 µM)

Q: And the MIC ([3]; JCM1373, HI medium)?
A: 30 µg/mL (≈ 651 µM)

Q: What about the MIC [4] of the same molecule?
A: 15 µg/mL

Q: And the MIC ([5]; KNOB16, HI medium, 24 H later)?
A: 15 µg/mL (≈ 326 µM)

Q: And the MIC ([5]; KNOB16, HI medium, 48 H later)?
A: 30 µg/mL (≈ 651 µM)

Q: What about the MIC ([5]; KNOB16, PSA medium, 24 H later) of the same molecule?
A: 60 µg/mL (≈ 1300 µM)

Q: What about the MIC ([5]; KNOB16, PSA medium, 48 H later) of the same molecule?
A: 7.5 µg/mL (≈ 163 µM)

Q: What about the MIC ([5]; KNOB23, HI medium, 24 H later) of the same molecule?
A: 15 µg/mL (≈ 326 µM)

Q: What about the MIC ([5]; KNOB23, HI medium, 48 H later) of the same molecule?
A: 30 µg/mL (≈ 651 µM)

Q: And the MIC ([5]; KNOB23, PSA medium, 24 H later)?
A: 7.5 µg/mL (≈ 163 µM)

Q: What about the MIC ([5]; KNOB23, PSA medium, 48 H later) of the same molecule?
A: 15 µg/mL (≈ 326 µM)

Q: How did the MIC ([1]; KNOB38, HI medium, 24 H later) turn out when `C[C@H]1O[C@H](O[C@H]2[C@H](O)[C@@H](O)[C@@H](O)[C@H](O)[C@@H]2O)[C@@H](N)C[C@@H]1NC(=N)C(=O)O` [KAS, kasugamycin] was run?
A: 8 µg/mL (≈ 21.1 µM)

Q: And the MIC ([1]; KNOB38, HI medium, 48 H later)?
A: 16 µg/mL (≈ 42.2 µM)

Q: And the MIC ([1]; KNOB39, HI medium, 24 H later)?
A: 8 µg/mL (≈ 21.1 µM)

Q: What about the MIC ([1]; KNOB39, HI medium, 48 H later) of the same molecule?
A: 16 µg/mL (≈ 42.2 µM)

Q: What about the MIC ([2]; KNOB30, HI medium) of the same molecule?
A: 32 µg/mL

Q: And the MIC ([2]; KNOB33, HI medium)?
A: 64 µg/mL

Q: And the MIC ([2]; KNOB64, HI medium)?
A: 64 µg/mL

Q: And the MIC ([2]; KNOB67, HI medium)?
A: 64 µg/mL

Q: What about the MIC ([2]; KNOB75, HI medium) of the same molecule?
A: 64 µg/mL

Q: What about the MIC ([2]; KNOB105, HI medium) of the same molecule?
A: 32 µg/mL

Q: What about the MIC ([2]; KNOB106, HI medium) of the same molecule?
A: 32 µg/mL

Q: What about the MIC ([2]; KNOB108, HI medium) of the same molecule?
A: 32 µg/mL

Q: What about the MIC ([2]; KNOB110, HI medium) of the same molecule?
A: 32 µg/mL

Q: And the MIC ([3]; JCM1370, HI medium)?
A: 128 µg/mL (≈ 337 µM)

Q: And the MIC ([3]; JCM1373, HI medium)?
A: 64 µg/mL (≈ 169 µM)

Q: And the MIC [4]?
A: 128 µg/mL

Q: And the MIC ([5]; KNOB16, HI medium, 24 H later)?
A: 32 µg/mL (≈ 84.4 µM)

Q: And the MIC ([5]; KNOB16, HI medium, 48 H later)?
A: 32 µg/mL (≈ 84.4 µM)

Q: And the MIC ([5]; KNOB16, PSA medium, 24 H later)?
A: 16 µg/mL (≈ 42.2 µM)

Q: And the MIC ([5]; KNOB16, PSA medium, 48 H later)?
A: 16 µg/mL (≈ 42.2 µM)

Q: What about the MIC ([5]; KNOB23, HI medium, 24 H later) of the same molecule?
A: 32 µg/mL (≈ 84.4 µM)

Q: What about the MIC ([5]; KNOB23, HI medium, 48 H later) of the same molecule?
A: 32 µg/mL (≈ 84.4 µM)

Q: And the MIC ([5]; KNOB23, PSA medium, 24 H later)?
A: 16 µg/mL (≈ 42.2 µM)

Q: What about the MIC ([5]; KNOB23, PSA medium, 48 H later) of the same molecule?
A: 32 µg/mL (≈ 84.4 µM)

Q: Which MIC ([1]; KNOB39, HI medium, 24 H later) does the source give for `[H]/N=C(/N)N[C@H]1[C@H](O)[C@@H](O)[C@H](O[C@@H]2O[C@@H](C)[C@](O)(C=O)[C@H]2O[C@@H]2O[C@@H](CO)[C@H](O)[C@@H](O)[C@@H]2NC)[C@@H](N/C(N)=N\[H])[C@@H]1O` [ST, streptomycin] here?
A: 8 µg/mL (≈ 13.8 µM)

Q: And the MIC ([1]; KNOB39, HI medium, 48 H later)?
A: 8 µg/mL (≈ 13.8 µM)

Q: And the MIC ([1]; Ralstonia solanacearum, 24 h)?
A: 8 µg/mL (≈ 13.8 µM)

Q: What about the MIC ([1]; Ralstonia solanacearum, 48 h) of the same molecule?
A: 8 µg/mL (≈ 13.8 µM)

Q: And the MIC [2, 6]?
A: 1.56 µg/mL

Q: What about the MIC [2, 7] of the same molecule?
A: 0.78 µg/mL

Q: What about the MIC ([2]; 24 h, KNOB64, HI medium) of the same molecule?
A: 1.56 µg/mL

Q: What about the MIC [2, 8] of the same molecule?
A: 1.56 µg/mL

Q: And the MIC [2, 9]?
A: 1.56 µg/mL

Q: And the MIC [2, 10]?
A: 1.56 µg/mL

Q: What about the MIC [2, 11] of the same molecule?
A: 1.56 µg/mL

Q: And the MIC [2, 12]?
A: 1.56 µg/mL

Q: And the MIC [2, 13]?
A: 1.56 µg/mL

Q: And the MIC ([3]; JCM1370, HI medium)?
A: 3.9 µg/mL (≈ 6.71 µM)

Q: And the MIC ([3]; JCM1373, HI medium)?
A: 7.8 µg/mL (≈ 13.4 µM)

Q: What about the MIC [4, 14] of the same molecule?
A: 0.39 µg/mL

Q: What about the MIC [5, 15] of the same molecule?
A: 2 µg/mL (≈ 3.44 µM)

Q: And the MIC [5, 16]?
A: 4 µg/mL (≈ 6.88 µM)

Q: What about the MIC [5, 17] of the same molecule?
A: 1 µg/mL (≈ 1.72 µM)

Q: And the MIC [5, 18]?
A: 4 µg/mL (≈ 6.88 µM)

Q: What about the MIC [5, 19] of the same molecule?
A: 2 µg/mL (≈ 3.44 µM)

Q: And the MIC [5, 20]?
A: 8 µg/mL (≈ 13.8 µM)

Q: And the MIC [5, 21]?
A: 1 µg/mL (≈ 1.72 µM)

Q: What about the MIC [5, 22] of the same molecule?
A: 4 µg/mL (≈ 6.88 µM)
